In paper PMC10223265 (Viruses, 2023):
Where two headings read alike, the source gives them in different places. Where a SMILES comes first, the peptide text is derived from it. Side-chain parts run from the residue outwards. The star is where a group is joined. X1 = CC(=O)N1CCC(C(=O)N(CCCN2CCC(Cc3ccc(C(=O)*)cc3)CC2)c2ccc(C)c(Cl)c2)CC1; PEG4 = NCCOCCOCCOCCOCCC(=O)O

Legend:
CEMx174 5.25M7 cells = experiment: Cell Counting Kit-8 (CCK8) cytotoxicity assay; assay type: cell-based; conditions: at 2000 nM
[1] = CD spectroscopy of isolated peptides; assay type: physicochemical; conditions: 10 μM, [θ]222nm
[2] = Solubility (saturated solution, RP-HPLC); assay type: physicochemical
proteinase K = proteinase K (Parengyodontium album, UniProt P06873); experiment: Metabolic stability in proteinase K solution; assay type: in vitro ADME; conditions: proteinase K 100 ng/mL, 50 μM peptide, 37 °C, 4-h incubation, read-out: original amount remaining
CCR5 = CCR5 (Homo sapiens, UniProt P51681); experiment: RANTES-induced calcium mobilization assay in CCR5-expressing HEK293 cells; assay type: cell-based; conditions: RANTES 34.6 nM, HEK293 cells expressing Gα15 and CCR5, Fluo-4
[3] = Metabolic stability in rat plasma; assay type: in vitro ADME; conditions: 37 °C, 4-h incubation, read-out: degradation
[4] = system: HIV-1 BaL strain (subtype B, R5); experiment: HIV-1 infection assay (p24 ELISA), laboratory-adapted R5 virus; assay type: cell-based; conditions: Human immunodeficiency virus 1, BAL, CEMx174 5.25M7
[5] = system: HIV-1 91US_4 (subtype B, R5); experiment: HIV-1 infection assay, primary isolate 91US_4; assay type: cell-based; conditions: Human immunodeficiency virus 1, primary isolate 91US_4, subtype B, CEMx174 5.25 M7 cells
[6] = system: HIV-1 J32228M4 (subtype D, R5); experiment: HIV-1 infection assay, primary isolate J32228M4; assay type: cell-based; conditions: Human immunodeficiency virus 1, CEMx174 5.25 M7 cells
[7] = system: HIV-1 strain 89BZ167 (subtype B, X4); experiment: HIV-1 infection assay, primary isolate 89BZ167; assay type: cell-based; conditions: Human immunodeficiency virus 1, CEMx174 5.25M7
[8] = system: HIV-1 92UG029 (subtype A, X4); experiment: HIV-1 infection assay, primary isolate 92UG029; assay type: cell-based; conditions: Human immunodeficiency virus 1, primary isolate 92UG029, subtype A, CEMx174 5.25 M7 cells
[9] = PBS pH 7.4, room temperature, read-out: Solubility in PBS (pH 7.4)

Sequence of CCR5 (P51681 whole entry): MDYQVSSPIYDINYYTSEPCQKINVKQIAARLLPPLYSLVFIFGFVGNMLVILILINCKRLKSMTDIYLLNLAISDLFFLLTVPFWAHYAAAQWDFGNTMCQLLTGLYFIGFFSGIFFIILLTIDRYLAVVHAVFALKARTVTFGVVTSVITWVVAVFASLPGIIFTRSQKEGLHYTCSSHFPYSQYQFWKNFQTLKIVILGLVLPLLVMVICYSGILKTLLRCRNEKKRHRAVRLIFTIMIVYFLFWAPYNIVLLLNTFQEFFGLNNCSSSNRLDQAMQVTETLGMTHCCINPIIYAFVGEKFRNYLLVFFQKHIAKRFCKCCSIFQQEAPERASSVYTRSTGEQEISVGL
Sequence of proteinase K (P06873 106-384): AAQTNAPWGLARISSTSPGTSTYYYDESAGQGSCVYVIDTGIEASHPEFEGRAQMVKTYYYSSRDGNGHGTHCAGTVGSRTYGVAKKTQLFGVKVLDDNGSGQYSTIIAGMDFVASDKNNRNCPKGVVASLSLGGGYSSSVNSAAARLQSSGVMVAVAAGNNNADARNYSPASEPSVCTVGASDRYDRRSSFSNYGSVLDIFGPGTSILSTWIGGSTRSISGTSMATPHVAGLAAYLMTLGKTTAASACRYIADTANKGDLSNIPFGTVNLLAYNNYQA

CC[C@H](C)[C@H](NC(=O)[C@H](CO)NC(=O)[C@H](CCC(=O)O)NC(=O)[C@H](CCC(=O)O)NC(=O)[C@H](CCC(N)=O)NC(=O)[C@H](CCCCN)NC(=O)[C@H](CCCCN)NC(=O)[C@@H](NC(=O)[C@H](CCC(N)=O)NC(=O)[C@H](CCC(=O)O)NC(=O)[C@H](CCC(=O)O)NC(=O)[C@@H](NC(=O)[C@H](CCCCN)NC(=O)[C@H](CCCCN)NC(=O)[C@@H](NC(=O)[C@H](CC(C)C)NC(=O)[C@H](CCC(=O)O)NC(=O)[C@H](CCC(=O)O)NC(=O)[C@H](CO)NC(=O)[C@H](CCCCN)NC(=O)[C@H](CCCCN)NC(=O)[C@@H](NC(=O)[C@H](CC(C)C)NC(=O)[C@H](CCC(=O)O)NC(=O)[C@H](CCC(=O)O)NC(=O)[C@@H](NC(=O)[C@H](CCCCN)NC(=O)[C@H](CCCCN)NC(=O)[C@H](CC(=O)O)NC(=O)[C@H](Cc1c[nH]c2ccccc12)NC(=O)[C@H](CCC(=O)O)NC(=O)[C@H](CCC(=O)O)NC(=O)[C@H](Cc1c[nH]c2ccccc12)NC(=O)[C@@H](NC(=O)[C@H](CCSC)NC(C)=O)[C@@H](C)O)[C@@H](C)CC)[C@@H](C)CC)[C@@H](C)CC)[C@@H](C)CC)[C@@H](C)CC)C(=O)N[C@@H](CCCCN)C(=O)N[C@@H](CCCCN)C(=O)N[C@@H](CCCCNC(=O)CCOCCOCCOCCOCCNC(=O)c1ccc(CC2CCN(CCCN(C(=O)C3CCN(C(C)=O)CC3)c3ccc(C)c(Cl)c3)CC2)cc1)C(N)=O [AP3P4E] (Ac-MTWEEWDKKIEELIKKSEELIKKIEEQIKKQEESIKKK([PEG4-X1])-NH2)
cytotoxicity (CEMx174 5.25M7 cells): no cytotoxicity | helical content (isolated peptide) [1]: 83% | solubility at 24 h [2, 9]: > 60000 µg/mL | solubility at 24 h ([2]; dd-H2O, H2O, room temperature, read-out: Solubility in H2O): > 60000 µg/mL | remaining at 4 h, 50 μM (proteinase K): 89.9%

CC[C@H](C)[C@H](NC(=O)[C@H](CO)NC(=O)[C@H](CCC(=O)O)NC(=O)[C@H](CCC(=O)O)NC(=O)[C@H](CCC(N)=O)NC(=O)[C@H](CCCCN)NC(=O)[C@H](CCCCN)NC(=O)[C@@H](NC(=O)[C@H](CCC(N)=O)NC(=O)[C@H](CCC(=O)O)NC(=O)[C@H](CCC(=O)O)NC(=O)[C@@H](NC(=O)[C@H](CCCCN)NC(=O)[C@H](CCCCN)NC(=O)[C@@H](NC(=O)[C@H](CC(C)C)NC(=O)[C@H](CCC(=O)O)NC(=O)[C@H](CCC(=O)O)NC(=O)[C@H](CO)NC(=O)[C@H](CCCCN)NC(=O)[C@H](CCCCN)NC(=O)[C@@H](NC(=O)[C@H](CC(C)C)NC(=O)[C@H](CCC(=O)O)NC(=O)[C@H](CCC(=O)O)NC(=O)[C@@H](NC(=O)[C@H](CCCCN)NC(=O)[C@H](CCCCN)NC(=O)[C@H](CC(=O)O)NC(=O)[C@H](Cc1c[nH]c2ccccc12)NC(=O)[C@H](CCC(=O)O)NC(=O)[C@H](CCC(=O)O)NC(=O)[C@H](Cc1c[nH]c2ccccc12)NC(=O)[C@@H](NC(=O)[C@H](CCSC)NC(C)=O)[C@@H](C)O)[C@@H](C)CC)[C@@H](C)CC)[C@@H](C)CC)[C@@H](C)CC)[C@@H](C)CC)C(=O)N[C@@H](CCCCN)C(=O)N[C@@H](CCCCN)C(N)=O [AP3] (Ac-MTWEEWDKKIEELIKKSEELIKKIEEQIKKQEESIKK-NH2)
helical content (isolated peptide) [1]: 86% | IC50 (CCR5): > 625 nM

enfuvirtide
solubility thermodynamic at 24 h [2, 9]: 1020 ± 30 µg/mL | solubility thermodynamic at 24 h ([2]; water (dd-H2O), H2O, room temperature, read-out: Solubility in H2O): 330 ± 10 µg/mL | remaining at 4 h, 50 μM (proteinase K): 35.8% | metabolised at 4 h, 50 μM [3]: 68%

CC(=O)N1CCC(C(=O)N(CCCN2CCC(Cc3ccc(C(N)=O)cc3)CC2)c2ccc(C)c(Cl)c2)CC1 [TAK-220]
EC50 [4]: 23.8 ± 13.3 nM | EC50 [5]: 12.1 ± 2.7 nM | EC50 [6]: 161 ± 6.6 nM | EC50 [7]: > 300 nM | EC50 [8]: > 300 nM | IC50 (CCR5): 0.74 nM
